# According to patent US12509431B2, “1,4-dihydroquinazolinone compounds and uses thereof” (Edgewise Therapeutics, Inc., priority 2022, dated 2025):
# Tested on: Rabbit Skeletal myofibrils (rabbit psoas muscle)
# Assay: Myofibril ATPase assay (PK/LDH NADH-coupled), skeletal myofibrils
# Assay type: biochemical
# Settings: Table 8
# In short: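 Rabbit psoas myofibrils in pCa (PIPES/CaCl2/EGTA, pH 7.0) buffer; ADP coupled via PK/LDH to NADH loss, read at 340 nm every 1.5–2 min for 75 min. Slopes normalized to vehicle (100%) and fit to 4-parameter logistic for EC25, plus EC50 for inhibitors.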
row,Rabbit Psoas IC25,SMILES
1,1080 nM,C[C@@H](NC(=O)CN1Cc2c(ccc(F)c2F)NC1=O)c1ncc(C#N)s1 [Compound B280]
2,100000 nM,C[C@@H](NC(=O)CN1Cc2c(ccc(F)c2F)NC1=O)c1ncc(C2COC2)cn1 [Compound B282]
3,100000 nM,C[C@H](NC(=O)CN1Cc2c(ccc(F)c2F)NC1=O)c1ncc(C2COC2)cn1 [Compound B283]
4,100000 nM,C[C@@H](NC(=O)CN1Cc2c(ccc(F)c2F)NC1=O)c1cc2ccccc2cn1 [Compound B284]
5,100000 nM,C[C@H](NC(=O)CN1Cc2c(ccc(F)c2F)NC1=O)c1cc2ccccc2cn1 [Compound B285]
6,40680 nM,C[C@@H](NC(=O)CN1Cc2c(ccc(F)c2F)NC1=O)c1ccc2ncccc2n1 [Compound B286]
7,100000 nM,C[C@H](NC(=O)CN1Cc2c(ccc(F)c2F)NC1=O)c1ccc2ncccc2n1 [Compound B287]
8,3980 nM,C[C@@H](NC(=O)CN1Cc2c(ccc(F)c2F)NC1=O)c1ccc2ccccc2n1 [Compound B288]
9,100000 nM,C[C@H](NC(=O)CN1Cc2c(ccc(F)c2F)NC1=O)c1ccc2ccccc2n1 [Compound B289]
10,420 nM,C[C@@H](NC(=O)CN1Cc2c(ccc(F)c2F)NC1=O)c1ncc(Br)cc1F [Compound B292]
11,1830 nM,N#Cc1cnc2c(c1)CC[C@H]2NC(=O)CN1C(=O)Nc2ccc(F)cc2C12CC2 [Compound B294]
12,170 nM,N#Cc1cnc2c(c1)CC[C@@H]2NC(=O)CN1C(=O)Nc2ccc(F)cc2C12CC2 [Compound B295]
13,60 nM,O=C(CN1C(=O)Nc2ccc(F)c(F)c2C12CC2)N[C@@H]1COc2cc(F)cnc21 [Compound B296]
14,63220 nM,Cc1cccc2c1C1(CC1)N(CC(=O)N[C@@H]1COc3cc(C#N)cnc31)C(=O)N2 [Compound B299]
15,1390 nM,Cc1cccc2c1C1(CC1)N(CC(=O)N[C@H]1COc3cc(C#N)cnc31)C(=O)N2 [Compound B300]
16,2520 nM,Cc1cccc2c1C1(CC1)N(CC(=O)N[C@H](C)c1cnc(C#N)cn1)C(=O)N2 [Compound B301]
17,5650 nM,Cc1cccc2c1C1(CC1)N(CC(=O)N[C@@H](C)c1cnc(C#N)cn1)C(=O)N2 [Compound B302]
18,20 nM,N#Cc1cc(F)c2c(c1)OC[C@H]2NC(=O)CN1C(=O)Nc2cccc(C#N)c2C12CC2 [Compound B303]
19,1050 nM,N#Cc1cc(F)c2c(c1)OC[C@@H]2NC(=O)CN1C(=O)Nc2cccc(C#N)c2C12CC2 [Compound B304]
20,610 nM,C[C@@H](NC(=O)CN1C(=O)Nc2ccc(F)c(F)c2C12CC2)c1ncc(C#N)cc1Cl [Compound B306]
21,20 nM,C[C@H](NC(=O)CN1C(=O)Nc2ccc(F)c(F)c2C12CC2)c1ncc(C#N)cc1Cl [Compound B307]

# Biological target: T1, Porcine Ventricle myofibrils (left ventricle of Yucatan minipigs) (Sus scrofa, UniProt P79293)
# T1 construct: Myofibrils from porcine cardiac muscle was isolated from the left ventricle of Yucatan minipigs; tissue Exemplar Genetics; host or cells: left ventricle of Yucatan minipigs
# T1 sequence (P79293 whole entry): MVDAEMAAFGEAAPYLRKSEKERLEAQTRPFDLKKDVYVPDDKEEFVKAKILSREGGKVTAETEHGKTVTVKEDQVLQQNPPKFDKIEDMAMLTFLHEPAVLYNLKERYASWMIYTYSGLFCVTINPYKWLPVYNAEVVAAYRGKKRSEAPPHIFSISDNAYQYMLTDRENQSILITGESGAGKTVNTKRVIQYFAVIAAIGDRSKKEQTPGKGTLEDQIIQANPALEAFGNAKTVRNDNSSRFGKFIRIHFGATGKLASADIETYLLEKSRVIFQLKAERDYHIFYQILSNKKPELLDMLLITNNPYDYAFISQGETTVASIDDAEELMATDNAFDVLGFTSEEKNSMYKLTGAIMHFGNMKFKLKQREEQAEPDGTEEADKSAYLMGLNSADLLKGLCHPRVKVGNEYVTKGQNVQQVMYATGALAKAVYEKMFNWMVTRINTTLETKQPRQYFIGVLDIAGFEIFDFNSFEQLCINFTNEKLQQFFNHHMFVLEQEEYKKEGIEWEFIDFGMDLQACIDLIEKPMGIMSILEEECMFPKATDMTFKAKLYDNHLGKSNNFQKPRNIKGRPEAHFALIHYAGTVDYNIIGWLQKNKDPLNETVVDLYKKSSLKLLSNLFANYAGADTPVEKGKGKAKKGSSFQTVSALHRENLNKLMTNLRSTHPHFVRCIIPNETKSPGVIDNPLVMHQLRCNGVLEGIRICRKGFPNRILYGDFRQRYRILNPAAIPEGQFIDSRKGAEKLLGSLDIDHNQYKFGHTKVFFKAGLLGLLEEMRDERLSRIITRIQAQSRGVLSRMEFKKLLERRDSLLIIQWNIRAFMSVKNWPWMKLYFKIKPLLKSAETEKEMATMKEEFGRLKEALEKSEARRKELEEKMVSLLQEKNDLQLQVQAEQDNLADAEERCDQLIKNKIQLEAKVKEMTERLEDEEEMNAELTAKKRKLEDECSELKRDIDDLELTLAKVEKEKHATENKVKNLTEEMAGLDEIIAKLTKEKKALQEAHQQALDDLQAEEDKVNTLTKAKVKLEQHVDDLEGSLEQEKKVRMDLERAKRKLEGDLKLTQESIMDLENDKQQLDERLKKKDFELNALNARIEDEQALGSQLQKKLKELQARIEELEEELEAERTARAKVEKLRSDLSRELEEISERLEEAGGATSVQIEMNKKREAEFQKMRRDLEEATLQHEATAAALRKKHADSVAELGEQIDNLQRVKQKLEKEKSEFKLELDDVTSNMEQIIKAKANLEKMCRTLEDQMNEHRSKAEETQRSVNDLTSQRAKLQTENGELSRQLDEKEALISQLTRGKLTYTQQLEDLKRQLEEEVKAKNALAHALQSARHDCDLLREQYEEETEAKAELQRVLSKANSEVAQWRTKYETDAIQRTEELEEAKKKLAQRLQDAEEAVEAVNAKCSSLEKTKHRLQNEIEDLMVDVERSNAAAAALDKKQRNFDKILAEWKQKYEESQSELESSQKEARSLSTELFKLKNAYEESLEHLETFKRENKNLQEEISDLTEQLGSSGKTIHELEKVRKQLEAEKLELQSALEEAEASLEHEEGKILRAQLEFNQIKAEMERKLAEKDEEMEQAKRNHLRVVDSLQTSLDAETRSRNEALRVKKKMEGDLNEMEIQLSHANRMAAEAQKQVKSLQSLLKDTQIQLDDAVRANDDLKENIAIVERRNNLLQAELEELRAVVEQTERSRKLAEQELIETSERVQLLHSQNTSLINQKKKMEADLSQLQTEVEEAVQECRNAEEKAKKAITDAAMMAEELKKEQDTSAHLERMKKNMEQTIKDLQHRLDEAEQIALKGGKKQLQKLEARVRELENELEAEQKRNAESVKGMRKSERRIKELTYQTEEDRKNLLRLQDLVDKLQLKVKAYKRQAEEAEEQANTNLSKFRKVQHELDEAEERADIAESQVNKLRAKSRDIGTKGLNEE
# Assay: Myofibril ATPase assay (PK/LDH NADH-coupled), ventricle myofibrils
# Assay type: biochemical
# Settings: Table 8
# In short: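 Yucatan minipig left-ventricle myofibrils; ATPase measured by PK/LDH-coupled NADH loss at 340 nm, read every 1.5-2 min for 75 min. Slopes normalized to vehicle (100%) and fit to 4-parameter logistic model; EC25 and, for inhibitors, EC50 calculated.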
row,Porcine Ventricle IC25,SMILES
1,6550 nM,C[C@@H](NC(=O)CN1Cc2c(ccc(F)c2F)NC1=O)c1ncc(C#N)s1 [Compound B280]
2,100000 nM,C[C@@H](NC(=O)CN1Cc2c(ccc(F)c2F)NC1=O)c1ncc(C2COC2)cn1 [Compound B282]
3,6490 nM,C[C@H](NC(=O)CN1Cc2c(ccc(F)c2F)NC1=O)c1ncc(C2COC2)cn1 [Compound B283]
4,440 nM,C[C@@H](NC(=O)CN1Cc2c(ccc(F)c2F)NC1=O)c1cc2ccccc2cn1 [Compound B284]
5,100000 nM,C[C@H](NC(=O)CN1Cc2c(ccc(F)c2F)NC1=O)c1cc2ccccc2cn1 [Compound B285]
6,8790 nM,C[C@@H](NC(=O)CN1Cc2c(ccc(F)c2F)NC1=O)c1ccc2ncccc2n1 [Compound B286]
7,100000 nM,C[C@H](NC(=O)CN1Cc2c(ccc(F)c2F)NC1=O)c1ccc2ncccc2n1 [Compound B287]
8,5290 nM,C[C@@H](NC(=O)CN1Cc2c(ccc(F)c2F)NC1=O)c1ccc2ccccc2n1 [Compound B288]
9,100000 nM,C[C@H](NC(=O)CN1Cc2c(ccc(F)c2F)NC1=O)c1ccc2ccccc2n1 [Compound B289]
10,540 nM,C[C@@H](NC(=O)CN1Cc2c(ccc(F)c2F)NC1=O)c1ncc(Br)cc1F [Compound B292]
11,39990 nM,N#Cc1cnc2c(c1)CC[C@H]2NC(=O)CN1C(=O)Nc2ccc(F)cc2C12CC2 [Compound B294]
12,350 nM,N#Cc1cnc2c(c1)CC[C@@H]2NC(=O)CN1C(=O)Nc2ccc(F)cc2C12CC2 [Compound B295]
13,390 nM,O=C(CN1C(=O)Nc2ccc(F)c(F)c2C12CC2)N[C@@H]1COc2cc(F)cnc21 [Compound B296]
14,100000 nM,Cc1cccc2c1C1(CC1)N(CC(=O)N[C@@H]1COc3cc(C#N)cnc31)C(=O)N2 [Compound B299]
15,1420 nM,Cc1cccc2c1C1(CC1)N(CC(=O)N[C@H]1COc3cc(C#N)cnc31)C(=O)N2 [Compound B300]
16,14900 nM,Cc1cccc2c1C1(CC1)N(CC(=O)N[C@H](C)c1cnc(C#N)cn1)C(=O)N2 [Compound B301]
17,2850 nM,Cc1cccc2c1C1(CC1)N(CC(=O)N[C@@H](C)c1cnc(C#N)cn1)C(=O)N2 [Compound B302]
18,90 nM,N#Cc1cc(F)c2c(c1)OC[C@H]2NC(=O)CN1C(=O)Nc2cccc(C#N)c2C12CC2 [Compound B303]
19,3960 nM,N#Cc1cc(F)c2c(c1)OC[C@@H]2NC(=O)CN1C(=O)Nc2cccc(C#N)c2C12CC2 [Compound B304]
20,180 nM,C[C@@H](NC(=O)CN1C(=O)Nc2ccc(F)c(F)c2C12CC2)c1ncc(C#N)cc1Cl [Compound B306]
21,70 nM,C[C@H](NC(=O)CN1C(=O)Nc2ccc(F)c(F)c2C12CC2)c1ncc(C#N)cc1Cl [Compound B307]

# Tested on: Porcine Atria myofibrils
# Assay: Myofibril ATPase assay (PK/LDH NADH-coupled), atria myofibrils
# Assay type: biochemical
# Settings: Table 8
# In short: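 Porcine atrial myofibril ATPase followed via PK/LDH-coupled NADH depletion, absorbance at 340 nm read every 1.5-2 min over 75 min. Slopes (mAU/min) normalized to vehicle as 100% and fit to a 4-parameter logistic; EC25% derived, plus EC50% for inhibitors.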
row,Porcine Atria IC25,SMILES
1,610 nM,C[C@@H](NC(=O)CN1Cc2c(ccc(F)c2F)NC1=O)c1ncc(C#N)s1 [Compound B280]
2,86130 nM,C[C@@H](NC(=O)CN1Cc2c(ccc(F)c2F)NC1=O)c1ncc(C2COC2)cn1 [Compound B282]
3,900 nM,C[C@H](NC(=O)CN1Cc2c(ccc(F)c2F)NC1=O)c1ncc(C2COC2)cn1 [Compound B283]
4,870 nM,C[C@@H](NC(=O)CN1Cc2c(ccc(F)c2F)NC1=O)c1cc2ccccc2cn1 [Compound B284]
5,100000 nM,C[C@H](NC(=O)CN1Cc2c(ccc(F)c2F)NC1=O)c1cc2ccccc2cn1 [Compound B285]
6,550 nM,C[C@@H](NC(=O)CN1Cc2c(ccc(F)c2F)NC1=O)c1ccc2ncccc2n1 [Compound B286]
7,75650 nM,C[C@H](NC(=O)CN1Cc2c(ccc(F)c2F)NC1=O)c1ccc2ncccc2n1 [Compound B287]
8,260 nM,C[C@@H](NC(=O)CN1Cc2c(ccc(F)c2F)NC1=O)c1ccc2ccccc2n1 [Compound B288]
9,100000 nM,C[C@H](NC(=O)CN1Cc2c(ccc(F)c2F)NC1=O)c1ccc2ccccc2n1 [Compound B289]
10,160 nM,C[C@@H](NC(=O)CN1Cc2c(ccc(F)c2F)NC1=O)c1ncc(Br)cc1F [Compound B292]
11,46590 nM,N#Cc1cnc2c(c1)CC[C@H]2NC(=O)CN1C(=O)Nc2ccc(F)cc2C12CC2 [Compound B294]
12,250 nM,N#Cc1cnc2c(c1)CC[C@@H]2NC(=O)CN1C(=O)Nc2ccc(F)cc2C12CC2 [Compound B295]
13,70 nM,O=C(CN1C(=O)Nc2ccc(F)c(F)c2C12CC2)N[C@@H]1COc2cc(F)cnc21 [Compound B296]
14,67410 nM,Cc1cccc2c1C1(CC1)N(CC(=O)N[C@@H]1COc3cc(C#N)cnc31)C(=O)N2 [Compound B299]
15,1420 nM,Cc1cccc2c1C1(CC1)N(CC(=O)N[C@H]1COc3cc(C#N)cnc31)C(=O)N2 [Compound B300]
16,4280 nM,Cc1cccc2c1C1(CC1)N(CC(=O)N[C@H](C)c1cnc(C#N)cn1)C(=O)N2 [Compound B301]
17,1080 nM,Cc1cccc2c1C1(CC1)N(CC(=O)N[C@@H](C)c1cnc(C#N)cn1)C(=O)N2 [Compound B302]
18,80 nM,N#Cc1cc(F)c2c(c1)OC[C@H]2NC(=O)CN1C(=O)Nc2cccc(C#N)c2C12CC2 [Compound B303]
19,1120 nM,N#Cc1cc(F)c2c(c1)OC[C@@H]2NC(=O)CN1C(=O)Nc2cccc(C#N)c2C12CC2 [Compound B304]
20,100 nM,C[C@@H](NC(=O)CN1C(=O)Nc2ccc(F)c(F)c2C12CC2)c1ncc(C#N)cc1Cl [Compound B306]
21,50 nM,C[C@H](NC(=O)CN1C(=O)Nc2ccc(F)c(F)c2C12CC2)c1ncc(C#N)cc1Cl [Compound B307]
